Reference: patent US7884136B2, “Modified-release formulations of a bupropion salt” (Biovail Laboratories International S.R.L., priority 2005, dated 2011)

Test: Accelerated stability study of bupropion HBr, closed bottles, 40° C./75% RH, 3 and 6 months, HPLC
Type: physicochemical
Conditions: 40° C., R.H. 75%; for Chromatographic purity B) (HPLC) 4) 2-N-(tert-Butyl)-aminopropiophenone / Chromatographic purity B) (HPLC) 5) single unknown impurity (each): LOQ 0.02%, LOD 0.002%; for Chromatographic purity A) (HPLC) 1) 3′-Chloropropiophenone / Chromatographic purity A) (HPLC) 3) 3′-Chlorobenzoic acid / Chromatographic purity A) (HPLC) 2) 3′-Chloro-2-bromopropiophenone: LOQ 0.05%; for Chromatographic purity A) (HPLC) 1) 3′-Chloropropiophenone / Chromatographic purity A) (HPLC) 3) 3′-Chlorobenzoic acid: LOD 0.01%; for Chromatographic purity A) (HPLC) 2) 3′-Chloro-2-bromopropiophenone: LOD 0.04%
Method: The samples were prepared in closed bottles and placed in the stability chamber. HPLC analysis was conducted on the samples prior to placing them in the stability chamber (time 0), and after 3 months and 6 months. The amounts of the main degradation products present at time 0 were compared with those amounts present after 3 months and 6 months. […] For each sample tested, at each time period, two different HPLC assays were run. The first assay labelled chromatographic purity A, measured the percentage of three impurities 3′chloropropiophenone, 3′-Chloro-2-bromopropiophenone and 3′-Chlorobenzoic acid. The second assay, labelled chromatographic purity B, measured the percentage of 2-N-(tert-Butyl)-aminopropiophenone, a single unknown impurity and the total unknown impurities.

Br.CC(NC(C)(C)C)C(=O)c1cccc(Cl)c1 (stereo not drawn) [Bupropion•HBr]
Assay (HPLC) (Batch D00895, 3 month): 100.7 % on d.b. | Chromatographic purity (HPLC: A + B) Total impurities (Batch D00895, 3 month): 0.1% | Chromatographic purity B) (HPLC) 6) total unknown impurities (Batch D00895, 3 month): 6) 0.05% | Description (white or almost white crystalline powder) (Batch D00895, 3 month): conform | Identification IR, HPLC (Batch D00895, 3 month): positive | Water content (K.F.) (Batch D00895, 3 month): 0.07% | Chromatographic purity B) (HPLC) 4) 2-N-(tert-Butyl)-aminopropiophenone (Batch D00895, 3 month): 4) 0.03% | Chromatographic purity B) (HPLC) 5) single unknown impurity (each) (Batch D00895, 3 month): 5) 0.04% | Chromatographic purity A) (HPLC) 1) 3′-Chloropropiophenone (Batch D00895, 3 month): 1) n.q. | Chromatographic purity A) (HPLC) 3) 3′-Chlorobenzoic acid (Batch D00895, 3 month): 3) 0.05% | Chromatographic purity A) (HPLC) 2) 3′-Chloro-2-bromopropiophenone (Batch D00895, 3 month): 2) n.d. | Assay (HPLC) (Batch D00895, 6 months): 99.7 % on d.b. | Chromatographic purity (HPLC: A + B) Total impurities (Batch D00895, 6 months): 0.1% | Chromatographic purity B) (HPLC) 6) total unknown impurities (Batch D00895, 6 months): 6) 0.02% | Description (white or almost white crystalline powder) (Batch D00895, 6 months): conform | Identification IR, HPLC (Batch D00895, 6 months): positive | Water content (K.F.) (Batch D00895, 6 months): 0.07% | Chromatographic purity B) (HPLC) 4) 2-N-(tert-Butyl)-aminopropiophenone (Batch D00895, 6 months): 4) 0.04% | Chromatographic purity B) (HPLC) 5) single unknown impurity (each) (Batch D00895, 6 months): 5) n.q. | Chromatographic purity A) (HPLC) 1) 3′-Chloropropiophenone (Batch D00895, 6 months): 1) 0.05% | Chromatographic purity A) (HPLC) 3) 3′-Chlorobenzoic acid (Batch D00895, 6 months): 3) n.q. | Chromatographic purity A) (HPLC) 2) 3′-Chloro-2-bromopropiophenone (Batch D00895, 6 months): 2) n.d. | Assay (HPLC) (Batch D00895, time 0): 99.2 % on d.b. | Chromatographic purity (HPLC: A + B) Total impurities (Batch D00895, time 0): 0.1% | Chromatographic purity B) (HPLC) 6) total unknown impurities (Batch D00895, time 0): 6) 0.04% | Description (white or almost white crystalline powder) (Batch D00895, time 0): conform | Identification IR, HPLC (Batch D00895, time 0): positive | Water content (K.F.) (Batch D00895, time 0): 0.04% | Chromatographic purity B) (HPLC) 4) 2-N-(tert-Butyl)-aminopropiophenone (Batch D00895, time 0): 4) 0.04% | Chromatographic purity B) (HPLC) 5) single unknown impurity (each) (Batch D00895, time 0): 5) 0.04% | Chromatographic purity A) (HPLC) 1) 3′-Chloropropiophenone (Batch D00895, time 0): 1) n.d. | Chromatographic purity A) (HPLC) 3) 3′-Chlorobenzoic acid (Batch D00895, time 0): 3) n.q. | Chromatographic purity A) (HPLC) 2) 3′-Chloro-2-bromopropiophenone (Batch D00895, time 0): 2) n.d. | Assay (HPLC) (Batch D00896, 3 month): 100.0 % on d.b. | Chromatographic purity (HPLC: A + B) Total impurities (Batch D00896, 3 month): 0.1% | Chromatographic purity B) (HPLC) 6) total unknown impurities (Batch D00896, 3 month): 6) 0.05% | Description (white or almost white crystalline powder) (Batch D00896, 3 month): conform | Identification IR, HPLC (Batch D00896, 3 month): positive | Water content (K.F.) (Batch D00896, 3 month): 0.11% | Chromatographic purity B) (HPLC) 4) 2-N-(tert-Butyl)-aminopropiophenone (Batch D00896, 3 month): 4) 0.03% | Chromatographic purity B) (HPLC) 5) single unknown impurity (each) (Batch D00896, 3 month): 5) 0.04% | Chromatographic purity A) (HPLC) 1) 3′-Chloropropiophenone (Batch D00896, 3 month): 1) n.q. | Chromatographic purity A) (HPLC) 3) 3′-Chlorobenzoic acid (Batch D00896, 3 month): 3) n.q. | Chromatographic purity A) (HPLC) 2) 3′-Chloro-2-bromopropiophenone (Batch D00896, 3 month): 2) n.d. | Assay (HPLC) (Batch D00896, 6 months): 100.4 % on d.b. | Chromatographic purity (HPLC: A + B) Total impurities (Batch D00896, 6 months): 0.1% | Chromatographic purity B) (HPLC) 6) total unknown impurities (Batch D00896, 6 months): 6) n.q. | Description (white or almost white crystalline powder) (Batch D00896, 6 months): conform | Identification IR, HPLC (Batch D00896, 6 months): positive | Water content (K.F.) (Batch D00896, 6 months): 0.04% | Chromatographic purity B) (HPLC) 4) 2-N-(tert-Butyl)-aminopropiophenone (Batch D00896, 6 months): 4) 0.04% | Chromatographic purity B) (HPLC) 5) single unknown impurity (each) (Batch D00896, 6 months): 5) n.q. | Chromatographic purity A) (HPLC) 1) 3′-Chloropropiophenone (Batch D00896, 6 months): 1) 0.05% | Chromatographic purity A) (HPLC) 3) 3′-Chlorobenzoic acid (Batch D00896, 6 months): 3) n.q. | Chromatographic purity A) (HPLC) 2) 3′-Chloro-2-bromopropiophenone (Batch D00896, 6 months): 2) n.d. | Assay (HPLC) (Batch D00896, Time 0): 99.3 % on d.b. | Chromatographic purity (HPLC: A + B) Total impurities (Batch D00896, Time 0): 0.1% | Chromatographic purity B) (HPLC) 6) total unknown impurities (Batch D00896, Time 0): 6) 0.05% | Description (white or almost white crystalline powder) (Batch D00896, Time 0): conform | Identification IR, HPLC (Batch D00896, Time 0): positive | Water content (K.F.) (Batch D00896, Time 0): 0.06% | Chromatographic purity B) (HPLC) 4) 2-N-(tert-Butyl)-aminopropiophenone (Batch D00896, Time 0): 4) 0.04% | Chromatographic purity B) (HPLC) 5) single unknown impurity (each) (Batch D00896, Time 0): 5) 0.05% | Chromatographic purity A) (HPLC) 1) 3′-Chloropropiophenone (Batch D00896, Time 0): 1) n.d. | Chromatographic purity A) (HPLC) 3) 3′-Chlorobenzoic acid (Batch D00896, Time 0): 3) n.q. | Chromatographic purity A) (HPLC) 2) 3′-Chloro-2-bromopropiophenone (Batch D00896, Time 0): 2) n.d.
